Counter-ions that a name gives are not always drawn. Like-named read-outs stand apart in the source and are kept apart here.

In data set [1] the target is T1, human histamine H2 receptor (Homo sapiens, UniProt P25021).
T1 construct: host or cells: COS-7, transient, DEAE-dextran
Kind of data set: [3H]tiotidine binding, histamine H2 receptor. The conditions noted are these: Table 2, cloned human receptor; read-out: Histamine H2 (pK1) (converted). From the text:
The coding sequence of the human H2 receptor was obtained from a human placenta genomic library, and cloned into the cloning site of PCEXV-3 eukaryotic expression vector. The plasmid DNA for the H2 receptor is designated pcEXV-H2, and was deposited on Nov. […] This construct was transfected into COS-7 cells by the DEAE-dextran method.

Data set [2] concerns the target T2, human histamine H1 receptor (Homo sapiens, UniProt P35367).
T2 construct: host or cells: COS-7, transient, DEAE-dextran
Kind of data set: [3H]mepyramine binding, histamine H1 receptor. From the text:
The coding sequence of the human histamine H1 receptor, homologous to the bovine H1 receptor, was obtained from a human hippocampal cDNA library, and was cloned into the eukaryotic expression vector pCEXV-3. The plasmid DNA for the H1 receptor is designated pcEXV-H1, and was deposited on Nov. […] This construct was transfected into COS-7 cells by the DEAE-dextran method.

The next data set deals with human prostate tissue. Kind of data set: Antagonism of phenylephrine-induced contraction of human prostatic tissue. The conditions noted are these: pA2, phenylephrine-induced contraction, dose-ratio method.
For another data set, the target named is T3, human 5HT1F receptor (Homo sapiens, UniProt P30939).
T3 construct: host or cells: LM(tk-) clonal cell line L-5-HT1F
T3 sequence (P30939 1-366): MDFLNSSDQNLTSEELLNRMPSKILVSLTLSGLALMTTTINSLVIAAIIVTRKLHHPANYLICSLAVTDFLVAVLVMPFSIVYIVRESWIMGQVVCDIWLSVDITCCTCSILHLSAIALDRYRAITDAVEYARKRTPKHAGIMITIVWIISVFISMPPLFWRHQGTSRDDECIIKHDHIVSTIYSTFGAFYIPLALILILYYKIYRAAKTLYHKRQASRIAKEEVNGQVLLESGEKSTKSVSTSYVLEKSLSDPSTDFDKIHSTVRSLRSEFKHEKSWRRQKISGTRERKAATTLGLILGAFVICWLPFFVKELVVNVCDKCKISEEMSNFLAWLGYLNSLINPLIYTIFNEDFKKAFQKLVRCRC
Kind of data set: [3H]serotonin competition binding, 5HT1F receptor. As for the experimental part: (§1) 5HT1Dα, 5HT1Dβ, 5HT1E, 5HT1F Receptors: The cell lysates of LM(tk−) clonal cell line stably transfected with the genes encoding each of these 5HT receptor-subtypes were prepared as described above. The cell line for the 5HT1Dα receptor, designated as Ltk-8-30-84, was deposited on Apr. […] The cell for the 5HT1Dβ receptor, designated as Ltk-11, was deposited on Apr. […] The cell line for the 5HT1E receptor, designated 5 HT1E-7, was deposited on Nov. […] The cell line for the 5HT1F receptor, designated L-5-HT1F, was deposited on Dec. […] These preparations were suspended in 50 mM Tris-HCl buffer (pH 7.4 at 37° C.) containing 10 mM MgCl2, 0.2 mM EDTA, 10 μM pargyline, and 0.1% ascorbate.

Another data set concerns the target T4, human 5HT1E receptor (Homo sapiens, UniProt P28566).
T4 construct: host or cells: LM(tk-) clonal cell line 5HT1E-7
Kind of data set: [3H]serotonin competition binding, 5HT1E receptor. The method, then: as §1

The target in the next data set is T5, human D2 receptor (Homo sapiens, UniProt P14416).
T5 construct: host or cells: COS-7, transient, DEAE-dextran
T5 sequence (P14416 whole entry): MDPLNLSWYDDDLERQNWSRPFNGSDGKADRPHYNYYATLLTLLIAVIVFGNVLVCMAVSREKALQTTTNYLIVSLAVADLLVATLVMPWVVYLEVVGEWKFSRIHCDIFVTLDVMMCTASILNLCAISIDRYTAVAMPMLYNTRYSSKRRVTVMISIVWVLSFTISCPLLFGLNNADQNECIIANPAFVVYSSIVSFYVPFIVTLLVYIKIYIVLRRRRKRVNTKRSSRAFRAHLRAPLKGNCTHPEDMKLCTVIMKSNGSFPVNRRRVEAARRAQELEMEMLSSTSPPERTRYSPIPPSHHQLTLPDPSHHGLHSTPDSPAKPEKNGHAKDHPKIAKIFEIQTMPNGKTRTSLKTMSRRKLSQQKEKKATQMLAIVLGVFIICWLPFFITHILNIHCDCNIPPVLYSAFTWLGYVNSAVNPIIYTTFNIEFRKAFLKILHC
Kind of data set: [3H]spiperone binding, dopamine D2 receptor. The method, then:
The potency of α1 antagonists at the D2 receptor was determined using membrane preparations from COS-7 cells transfected with the gene encoding the human D2 receptor. The coding region for the human D2 receptor was obtained from a human striatum cDNA library, and cloned into the cloning site of PCDNA 1 eukariotic expression vector. The plasmid DNA for the D2 receptor is designated pcEXV-D2, and was deposited on Nov. […] This construct was transfected into COS-7 cells by the DEAE-dextran method. […] The cell lysates were incubated with [3H]spiperone (2 nM), using 10 μM (+)Butaclamol to determine nonspecific binding.

Another data set concerns the target T6, human 5HT1Dα receptor (Homo sapiens, UniProt P28221).
T6 construct: host or cells: LM(tk-) clonal cell line Ltk-8-30-84
Kind of data set: [3H]serotonin competition binding, 5HT1Dα receptor. The method, then: as §1

Another data set has as its target T7, human 5HT1Dβ receptor (Homo sapiens, UniProt P28222).
T7 construct: host or cells: LM(tk-) clonal cell line Ltk-11
Kind of data set: [3H]serotonin competition binding, 5HT1Dβ receptor. The method, then: as §1

In a further data set the target is T8, human 5HT2 receptor (Homo sapiens, UniProt P28223).
T8 construct: host or cells: COS-7 (DEAE-dextran); the same paragraph also names a deposited line L-NGC-5HT2
T8 sequence (P28223 whole entry): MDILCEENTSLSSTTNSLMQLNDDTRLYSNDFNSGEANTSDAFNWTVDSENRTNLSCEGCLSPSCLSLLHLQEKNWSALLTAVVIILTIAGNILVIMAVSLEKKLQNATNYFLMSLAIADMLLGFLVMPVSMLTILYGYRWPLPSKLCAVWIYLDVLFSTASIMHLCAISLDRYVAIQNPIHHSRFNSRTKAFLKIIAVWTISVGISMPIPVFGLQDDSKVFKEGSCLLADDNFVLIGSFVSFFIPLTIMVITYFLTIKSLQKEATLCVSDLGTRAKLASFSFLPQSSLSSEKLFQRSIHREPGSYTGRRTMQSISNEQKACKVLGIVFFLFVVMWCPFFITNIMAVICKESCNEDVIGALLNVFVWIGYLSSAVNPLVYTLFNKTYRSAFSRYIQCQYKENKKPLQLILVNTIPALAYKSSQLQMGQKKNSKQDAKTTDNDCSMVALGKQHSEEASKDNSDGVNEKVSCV
Kind of data set: [3H]ketanserin competition binding, 5HT2 receptor. The method, then:
The coding sequence of the human 5HT2 receptor was obtained from a human brain cortex cDNA library, and cloned into the cloning site of pCEXV-3 eukaryotic expression vector. This construct was transfected into COS-7 cells by the DEAE-dextran method. […] Nonspecific binding was defined by the addition of 10 μM mianserin.

For data set [3], the system named is Sprague-Dawley normotensive rats. Kind of data set: Rat orthostatic hypotension model. In kind it is in vivo. The conditions noted are these: for BP fall / orthostatic fall in BP: i.v.; for orthostatic fall in BP: second tilt. The method, then: Adult male Sprague-Dawley normotensive rats were anesthetized with sodium pentobarbital (45 mg/kg, i.v.). The femoral vein and artery of the right hindlimb were cannulated for drug administration and blood pressure monitoring, respectively. Heart rate was determined by a cardiotachometer triggered by the blood pressure pulse. The rats were secured in the supine position to a board that could be tilted 90 degrees. When blood pressure and heart rate had stabilized, the rats were subjected to a 90 degree vertical (head up) tilt for 60 seconds. Changes in blood pressure and heart rate from pre-tilt levels were monitored continuously. The rats were returned to the supine position and blood pressure and heart rate were allowed to stabilize. […] When blood pressure had stabilized, the rats were subjected to a second tilt and blood pressure and heart rate were recorded as described above. […] Data from the second tilt are used in statistical analysis.

Another data set has as its target T9, calcium channels (Rattus norvegicus, UniProt P22002).
T9 construct: from tissue; host or cells: rat cardiac muscle membranes
Kind of data set: [3H]nitrendipine competition binding, calcium channels, rat cardiac muscle membranes. The conditions noted are these: Table 2, rat cardiac muscle membranes; read-out: Calcium Channel (pK1) (converted). The method, then:
Briefly, the tissue was minced and homogenized in 50 mM Tris-HCl (pH 7.4) containing 0.1 mM phenylmethylsulfonyl fluoride. The homogenates were centrifuged at 1000 g for 15 minutes, the resulting supernatant was centrifuged at 45,000 g for 15 minutes. The 45,000 g pellet was suspended in buffer and centrifuged a second time.

A further data set concerns 5-α-reductase. Conditions: BPH patients; cited from earlier work.

T1 sequence (P25021 whole entry): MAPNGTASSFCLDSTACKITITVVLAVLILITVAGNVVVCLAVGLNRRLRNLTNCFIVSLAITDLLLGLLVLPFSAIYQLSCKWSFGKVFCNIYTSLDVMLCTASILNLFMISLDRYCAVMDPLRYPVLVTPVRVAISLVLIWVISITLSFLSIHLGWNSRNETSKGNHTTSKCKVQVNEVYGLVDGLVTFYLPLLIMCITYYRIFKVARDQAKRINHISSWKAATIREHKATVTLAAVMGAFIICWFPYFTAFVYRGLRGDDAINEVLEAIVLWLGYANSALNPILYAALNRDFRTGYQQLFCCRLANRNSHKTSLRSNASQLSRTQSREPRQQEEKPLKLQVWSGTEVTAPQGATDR
T9 sequence (P22002 whole entry, other chains not shown): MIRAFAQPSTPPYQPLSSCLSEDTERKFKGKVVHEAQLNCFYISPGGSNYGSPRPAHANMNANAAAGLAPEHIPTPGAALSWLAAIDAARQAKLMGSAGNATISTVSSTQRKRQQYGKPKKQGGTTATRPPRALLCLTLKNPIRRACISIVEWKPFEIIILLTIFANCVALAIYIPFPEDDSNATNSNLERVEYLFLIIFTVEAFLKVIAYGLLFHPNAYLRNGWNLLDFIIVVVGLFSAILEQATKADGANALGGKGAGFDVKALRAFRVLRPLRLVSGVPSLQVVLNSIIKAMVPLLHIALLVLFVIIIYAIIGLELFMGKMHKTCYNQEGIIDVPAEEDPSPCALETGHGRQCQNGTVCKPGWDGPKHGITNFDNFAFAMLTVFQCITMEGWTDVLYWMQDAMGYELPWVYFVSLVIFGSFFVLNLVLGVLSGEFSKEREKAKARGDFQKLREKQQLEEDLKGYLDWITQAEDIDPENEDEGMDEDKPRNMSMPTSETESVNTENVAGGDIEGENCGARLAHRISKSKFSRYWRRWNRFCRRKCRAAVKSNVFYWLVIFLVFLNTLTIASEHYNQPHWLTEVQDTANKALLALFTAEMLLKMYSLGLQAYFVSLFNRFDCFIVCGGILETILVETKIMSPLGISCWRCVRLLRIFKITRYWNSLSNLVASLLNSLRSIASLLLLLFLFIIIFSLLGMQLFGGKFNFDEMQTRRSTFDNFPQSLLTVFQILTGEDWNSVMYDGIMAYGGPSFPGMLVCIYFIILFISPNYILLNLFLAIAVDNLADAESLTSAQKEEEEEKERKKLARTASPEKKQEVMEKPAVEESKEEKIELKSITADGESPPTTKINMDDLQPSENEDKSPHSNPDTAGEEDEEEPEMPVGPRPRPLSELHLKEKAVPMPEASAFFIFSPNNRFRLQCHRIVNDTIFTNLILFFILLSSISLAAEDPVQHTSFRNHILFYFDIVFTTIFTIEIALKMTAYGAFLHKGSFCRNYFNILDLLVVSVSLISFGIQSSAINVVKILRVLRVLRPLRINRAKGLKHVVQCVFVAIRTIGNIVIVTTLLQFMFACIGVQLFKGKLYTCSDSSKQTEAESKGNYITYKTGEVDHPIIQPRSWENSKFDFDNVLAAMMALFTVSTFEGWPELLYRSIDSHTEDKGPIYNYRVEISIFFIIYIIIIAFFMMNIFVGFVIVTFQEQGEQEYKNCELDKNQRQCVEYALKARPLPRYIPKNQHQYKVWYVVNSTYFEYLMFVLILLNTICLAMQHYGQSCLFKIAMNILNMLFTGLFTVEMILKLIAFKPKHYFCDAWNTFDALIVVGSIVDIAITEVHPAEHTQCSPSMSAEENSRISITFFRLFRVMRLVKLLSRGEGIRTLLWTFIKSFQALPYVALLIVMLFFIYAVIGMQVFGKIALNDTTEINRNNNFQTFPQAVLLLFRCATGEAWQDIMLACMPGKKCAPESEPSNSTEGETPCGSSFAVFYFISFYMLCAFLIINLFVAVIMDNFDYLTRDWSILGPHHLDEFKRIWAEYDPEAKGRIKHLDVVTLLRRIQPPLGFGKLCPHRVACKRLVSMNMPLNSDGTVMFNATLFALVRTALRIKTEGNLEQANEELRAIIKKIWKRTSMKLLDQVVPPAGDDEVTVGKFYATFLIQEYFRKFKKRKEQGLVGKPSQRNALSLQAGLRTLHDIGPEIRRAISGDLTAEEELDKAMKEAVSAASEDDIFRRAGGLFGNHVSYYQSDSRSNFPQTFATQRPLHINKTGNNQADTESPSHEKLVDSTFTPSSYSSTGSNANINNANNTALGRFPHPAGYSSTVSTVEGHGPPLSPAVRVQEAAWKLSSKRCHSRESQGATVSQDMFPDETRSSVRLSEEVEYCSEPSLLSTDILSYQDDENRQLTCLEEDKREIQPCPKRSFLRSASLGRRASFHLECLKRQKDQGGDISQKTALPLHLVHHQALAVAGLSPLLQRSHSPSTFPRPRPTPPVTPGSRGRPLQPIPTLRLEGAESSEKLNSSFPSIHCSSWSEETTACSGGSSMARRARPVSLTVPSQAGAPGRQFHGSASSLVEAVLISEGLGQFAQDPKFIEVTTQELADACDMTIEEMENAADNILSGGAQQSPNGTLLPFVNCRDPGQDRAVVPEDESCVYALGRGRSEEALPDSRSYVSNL
T9 sequence (P54290 25-944 partner limits assumed, other chains not shown): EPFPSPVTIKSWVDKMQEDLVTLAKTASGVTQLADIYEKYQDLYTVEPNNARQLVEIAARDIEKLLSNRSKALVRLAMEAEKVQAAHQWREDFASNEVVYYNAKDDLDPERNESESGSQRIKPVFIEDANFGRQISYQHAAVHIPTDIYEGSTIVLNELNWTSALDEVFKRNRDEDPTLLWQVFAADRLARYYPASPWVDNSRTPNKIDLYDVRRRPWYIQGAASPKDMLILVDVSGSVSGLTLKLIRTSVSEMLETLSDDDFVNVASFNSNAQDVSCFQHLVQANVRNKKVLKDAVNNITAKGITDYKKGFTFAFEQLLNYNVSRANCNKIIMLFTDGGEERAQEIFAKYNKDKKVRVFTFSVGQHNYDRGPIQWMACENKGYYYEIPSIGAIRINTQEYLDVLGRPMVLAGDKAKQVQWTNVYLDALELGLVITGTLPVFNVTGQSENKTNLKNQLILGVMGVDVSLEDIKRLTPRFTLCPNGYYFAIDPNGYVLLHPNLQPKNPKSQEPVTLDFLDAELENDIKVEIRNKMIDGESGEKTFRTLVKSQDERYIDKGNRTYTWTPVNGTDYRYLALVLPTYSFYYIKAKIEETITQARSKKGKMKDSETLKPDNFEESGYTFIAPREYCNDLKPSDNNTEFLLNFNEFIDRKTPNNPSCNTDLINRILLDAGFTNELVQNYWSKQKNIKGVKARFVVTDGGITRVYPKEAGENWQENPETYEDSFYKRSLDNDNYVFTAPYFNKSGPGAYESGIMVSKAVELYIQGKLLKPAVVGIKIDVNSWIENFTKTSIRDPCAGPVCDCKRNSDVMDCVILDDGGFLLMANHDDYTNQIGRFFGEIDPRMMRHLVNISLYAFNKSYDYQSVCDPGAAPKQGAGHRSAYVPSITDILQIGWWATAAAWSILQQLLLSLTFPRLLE
T9 sequence (P54290 945-1091 partner limits assumed, other chains not shown): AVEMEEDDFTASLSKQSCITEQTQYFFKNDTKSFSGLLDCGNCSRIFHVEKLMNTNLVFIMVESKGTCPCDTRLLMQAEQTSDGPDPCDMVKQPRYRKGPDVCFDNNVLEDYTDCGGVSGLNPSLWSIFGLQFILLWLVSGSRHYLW
T6 sequence (P28221 whole entry): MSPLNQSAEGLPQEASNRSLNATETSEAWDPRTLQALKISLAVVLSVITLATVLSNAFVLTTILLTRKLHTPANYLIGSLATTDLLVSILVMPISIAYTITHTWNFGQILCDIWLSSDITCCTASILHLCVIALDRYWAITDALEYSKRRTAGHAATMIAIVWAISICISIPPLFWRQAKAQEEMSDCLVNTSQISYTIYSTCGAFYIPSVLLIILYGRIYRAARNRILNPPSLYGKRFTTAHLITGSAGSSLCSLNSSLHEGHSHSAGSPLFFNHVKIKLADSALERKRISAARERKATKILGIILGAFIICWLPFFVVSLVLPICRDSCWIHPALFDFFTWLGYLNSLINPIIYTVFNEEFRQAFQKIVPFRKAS
Description for human prostate tissue: An index of this efficacy can be obtained by determining the potency of α1 antagonists to antagonize the contraction of human prostatic tissue induced by an α1 agonist “in vitro”.
Prostatic adenomas were obtained at the time of surgery from patients with symptomatic BPH. […] Isometric tension was measured with a Grass Instrument FT03 force transducer interfaced with a computer. Tissue strips were contracted with varying concentrations of phenylephrine after incubating for 20 minutes in the absence and presence of at least three different concentrations of antagonist. Dose-response curves for phenylephrine were constructed, and the antagonist potency (pA2) was estimated by the dose-ratio method.

For orientation: melting point means the temperature of the solid-liquid transition. Regarding `O=C(CCCN1CCC(NC(=O)c2ccccc2)CC1)c1ccc(Cl)cc1` (as salt: HCl) [Example 4, 1-[3-(4-chlorobenzoyl)propyl]-4-benzamidopiperidine], the melting point was in the range of 243 to 244 °C.
Consider `COC(=O)C1=C(C)NC(C)=C(C(=O)NCCCN2CCC(c3ccccc3)(c3ccccc3)CC2)C1c1ccc([N+](=O)[O-])cc1.Cl.O` (stereo not drawn) [Compound 2, 2,6-Dimethyl-4-(4-nitrophenyl)-1,4-dihydropyridine-3,5-dicarboxylic acid N-[3-(4,4-diphenylpiperidin-1-yl)-propyl]amide methyl ester hydrochloride hydrate], for which the Ki is 0.0331 µM in data set [1]; 0.0692 µM in [2]; more than 10 µM at human 5HT1F receptor; more than 10 µM at human 5HT1E receptor; more than 0.1 µM at human D2 receptor; more than 0.1 µM on human 5HT1Dα receptor. Besides, the Ki on human 5HT1Dβ receptor and at human 5HT2 receptor was more than 1 µM in each case. For the same compound, the “Human Prostate (pA)” value in the data set on human prostate tissue is on record as 8.94.
`COc1cc2nc(N3CCN(C(=O)c4ccco4)CC3)nc(N)c2cc1OC` [Prazosin]: the BP fall result in data set [3] (Dose 1, 10 ug/kg) is listed as “+”; in [3] (Dose 2, 100 ug/kg), “++”; in [3] (Dose 3, 1000 ug/kg) it was “+++”. Also, the “orthostatic fall in BP” value in data set [3] (Dose 1, 10 ug/kg) is given as “+”; in [3] (Dose 2, 100 ug/kg), “++ or +++”; in data set [3] (Dose 3, 1000 ug/kg), “++ or +++”. In data set [3] (doses 10, 100, 1000 ug/kg), the “orthostasis (Table 3)” value is given as “consistently cause orthostasis at the lowest dose”. Moreover, the Ki on calcium channels is 26.9 µM. The “Human Prostate (pA)” value in the data set on human prostate tissue worked out at 9.08.
In the case of `CC(C)(C)NC(=O)[C@H]1CC[C@H]2[C@@H]3CC[C@H]4NC(=O)C=C[C@]4(C)[C@H]3CC[C@]12C` [Proscar], in the data set with 5-α-reductase, the “patients in whom effective” value is 30% and the “period required to show results” value is “up to 6 months”.
For `COc1cc2nc(N3CCN(C(=O)C4CCCO4)CC3)nc(N)c2cc1OC` (stereo not drawn) [Terazosin, 2 [4-(Tetrahydro-2-furoyl)piperazinyl]-4-amino-6,7-dimethoxyquinazoline hydrochloride, reference compound], the Ki in data set [1] is 9.12 µM; at human D2 receptor (Table 2, cloned human receptor, read-out: Dopamine D2 (pK1)), more than 10 µM. For the same compound, the “Human Prostate (pA)” value in the data set on human prostate tissue stood at 7.30.

These data come from patent publication US6602888B2, “Use of α1C specific compounds to treat benign prostatic hyperplasia” (Synaptic Pharmaceutical Corporation, priority 1992, dated 2003).
